Here are results for one compound from US20230293488A1, “COMPOSITIONS AND METHODS OF USE OF ANTIBACTERIAL DRUG COMBINATIONS” (priority 2015, published 2023).

The test system of experiment [1] is MRSA N315. Description: In vitro MICs and FICI for MRSA N315 after passage in vivo. It counts as cell-based, Staphylococcus aureus. An excerpt:
We tested MRSA N315 cultures from blood drawn from mice treated with meropenem, piperacillin, or vehicle for their in vitro MICs against ME/PI/TZ and its constituent single drugs to determine whether adaptation occurred during passage in vivo. All four tested isolates of MRSA N315 had identical MICs for the triple ME/PI/TZ and all constituent drugs, and thus identical synergy (Table 6B).
(§1) Microbiological Studies: MRSA N315 was a gift from Dr. Steven Gill, University of Rochester, Rochester, NY, USA. S. aureus ATCC 29213 was acquired from the American Type Culture Collection. De-identified clinical MRSA isolates were selected at random from the clinical isolate strain bank at Barnes-Jewish Hospital, St. Louis, MO, USA. Minimal inhibitory concentration (MIC) assays for inhibition of growth were performed following the recommendations of the Clinical and Laboratory Standards Institute (CLSI)^43. Briefly, 23 antibacterial compounds (Supplemental Table 1) were selected based on coverage of all major drug classes, including three compounds not classified as antibiotics for human use, but with known antibacterial properties. Compounds were dissolved in dimethyl sulfoxide (DMSO) to a stock concentration of 50 mg/ml. Exceptions: Sulfometuron at 20 mg/ml in DMSO; Tobramycin, D-cycloserine, and colistin at 50 mg/ml in H2O and filtered at 2 μm. The 23 compounds were formulated into all 253 possible unique pairwise combinations at fixed ratios and at 100× concentrations in solvent. To increase the range of concentrations assayed for possible synergistic or antagonistic drug interactions (>2,000-fold), the drug stocks were arrayed into threefold dilution series down eight rows in 96-well Costar master drug plates, using a BioMek FX robotic liquid handler (Beckman Coulter, Inc.). Drugs were then mixed 1:100 into 96-well plates containing 200 μl/well of cation-adjusted Mueller-Hinton broth (CAMHB). All drug susceptibility assay wells were inoculated with ˜1 μl of mid-log phase bacterial culture at 0.5 McFarland standard (˜2×10^8 CFU/ml) and grown at 37° C. for 24 h. Endpoint growth at 37° C. after 24 h was determined by optical density at 600 nm ≥0.1 using a Synergy H1 reader (BioTek, Inc.).
(§2) Bacterial isolation from blood. Blood samples were checked for bacterial growth by plating and liquid culture. Whole blood (100 μl, three samples per group) was spread onto Brain-Heart Infusion (BHI) agar plates and incubated at 36° C. overnight. Colonies were counted and three colonies were selected, grown overnight in liquid BHI culture at 36° C., then mixed 1:1 with 30% LB-glycerol and stored at −80° C. The remaining three blood samples of each group (50 μl) was added to 5 ml BHI broth and incubated overnight at 36° C. When growth was noted, cultures were mixed 1:1 with 30% LB-glycerol and stored at −80° C.

The test system of experiment [2] is MRSA N315. Description: Neutropenic mouse peritonitis model of MRSA infection. It counts as in vivo, mice.
Description: In vivo mouse model of MRSA infection: Animals. Outbred ICR female mice (6-8 weeks old, 17-25 g body weight; Harlan Laboratories, Inc., Indianapolis, IN, USA) were used. Mice were given Teklad 2019 Extruded Rodent Diet (Harlan Laboratories, Inc., Indianapolis, IN, USA) and water ad libitum. Mice were maintained in polycarbonate shoebox cages containing corncob (The Andersons, Inc., Maumee, OH, USA) and Alpha-dri (Shepherd Specialty Papers, Inc., Richland, MI, USA) bedding under 12-h light/12-h dark cycle at 22±1° C. All procedures involving animals were approved by the University of Notre Dame Institutional Animal Care and Use Committee.
Neutropenic mouse peritonitis model of MRSA infection. Doses of cyclophosphamide (100 μl of 50 mg/ml in 0.9% saline corresponding to 200 mg/kg; Alfa Aesar, Ward Hill, MA, USA) were given intraperitoneally (IP) at 4 days and 1 day prior to infection. The S. strain N315 was streaked onto Brain-Heart Infusion (BHI; Becton Dickson and Company, Sparks, MD, USA) agar and grown overnight at 36° C. The MRSA N315 bacterial inoculum was adjusted to approximately 1×10^8 CFU/ml (corresponding to OD540=0.5), then diluted to give 2×10^7CFU/ml. A 10% porcine mucin (Sigma-Aldrich, St. Louis, MO, USA) suspension was prepared and adjusted to pH 7. Immediately prior to infection, the bacterial inocula were diluted 1:1 with 10% mucin to a final concentration of 1×10^7CFU/ml in 5% mucin. The mice were then infected IP with 0.5 ml of this inoculum. In vivo dosing of compounds in mice was compared with mean or range peak human plasma concentrations of studied β-lactams^44,46,47,62,63.
Antibiotic preparation. Meropenem was obtained from AK Scientific, Inc. (Union City, CA, USA), piperacillin and tazobactam were obtained from Sigma-Aldrich Co. (St. Louis, MO, USA). Linezolid (CAS 165800-03-3) was obtained from AmplaChem (Carmel, IN, USA). Antibiotics were dissolved at a concentration of 16.67 mg/ml in 30% DMSO/30% propylene glycol/40% water. Linezolid was used as positive control and was prepared at 7.5 mg/ml. Vehicle (30% DMSO/30% propylene glycol/40% water) was included as negative control. The dosing formulations were sterilized by passing through 0.2 μm filter prior to injection.
as §2
Statistical Analyses: Data for minimal inhibitory concentrations (MICs) are derived from triplicate measurements. Adaptation data are taken from two replicate experiments for each drug combination condition. Data for qRT-PCR expression profiling are derived from three replicate experiments taken from three biological replicates each, with standard error of measurement calculated. Mice were treated in groups of six, and growth determination of bacteria determined via plate and broth culture in triplicate. Fisher's Exact test with Bonferroni correction was used for 8 independent tests (comparing each treatment to 610 vehicle).

Experiment [3] deals with MRSA N315. Description: MIC assay and FICI synergy determination (checkerboard). Conditions: Staphylococcus aureus, MRSA; single compounds; read-out: MIC in MRSA N315. The class given is cell-based, Staphylococcus aureus. As to the method: as §1
Synergy of antibiotic combinations was determined using the fractional inhibitory concentration index (FICI) method ^57,58. By this method, the MIC of the antibiotic compound in combination is divided by the MIC of the compound alone, yielding the fractional contribution of each drug component in the combination. Quotients for all in a combination are summed and drug interactions scored using the formula: FICI=(MIC Acomb A B C)/MICagent A+(MIC Bcomb A B C)/MICagent B+(MIC Ccomb A B C)/MICagentC Select pairwise combinations against MRSA were then combined with each of the 21 remaining single drugs to make triple combinations, formulated and tested in identical fashion to the double combinations. Synergy of combinations was confirmed via triplicate measurements of drug conditions at the MIC. Based on its high synergy against MRSA N315 in the sparse screening, ME/PI/TZ and its constituents were selected for further characterization. Final susceptibility testing of ME/PI/TZ and its components was performed using twofold dilution from 128 to 2 μg/ml for each component

The subject of experiment [4] is MRSA N315. The experiment in a line: Adaptation and cross-resistance assays (11-day passage). It counts as cell-based, Staphylococcus aureus. Conditions: MRSA N315 after exposure to any other single or double compounds. As to the method: Adaptation and Cross-resistance Assays: 414 MRSA N315 was grown in 150 μl/well of CAMHB with constant shaking at 37° C. and passaged over 11 days in identical 96-well plates containing replicate threefold dilutions of ME/PI/TZ, ME/PI, ME/TZ, PI/TZ, ME, PI, and TZ. Top concentrations of drug combinations were 33.3 μg/ml for each component, while top concentrations for single drugs was 100 μg/ml. To test for cell viability, at the end of the assay on day 11, all wells from the plate were pinned with a sterile 96-pin replicator and transferred to CAMHB only. After passage, plates were filled 1:1 with 30% CAMHB/glycerol and frozen at −80° C. for later analysis.
Growth rate of isolates over passages in each condition was determined by linear best-fit of logarithm-converted exponential growth phase. […] Adapted isolates were retrospectively chosen from each combination or single compound in wells showing an increase in MIC or growth rate, frozen isolates were streaked out on agar plates to obtain single colonies, re-grown in broth conditions identical to those in which they grew originally, and then re-inoculated in sterile 96-well plates identical to the original 11-day 431 plates.

In another experiment the test system is mecA. The experiment in a line: Expression profiling with qRT-PCR. Conditions: wild-type MRSA N315, relative to gyrB. It counts as cell-based, Staphylococcus aureus.

Description for mecA: Expression profiling with qRT-PCR: Wild-type and adapted MRSA N315 isolates were grown in triplicate in 100 ml flasks to mid-log phase in CAMHB +/−piperacillin at 11.1 μg/ml or tazobactam at 33.3 μg/ml. To harvest cells at mid-log phase, each culture flask was split into 2×50 ml screw-cap tubes, spun down at 4° C. for 10 min at 3500 rpm, supernatant removed, and pellets combined carefully with a 2 ml serological pipette. 1 ml RNAprotect Bacteria Reagent (Qiagen, Valencia, CA, USA) was added to pellets to stabilize the RNA, vortexed briefly, and incubated for 5 min at RT. After incubation, tubes were spun again at 4° C. for 10 min at 3500 rpm, supernatant removed, and the pellets were stored at −80° C. […]
CFX protocol: 2 min@50° C., 2 min@95° C., (15 s@95° C., 1 min@60° C.)×40 cycles. Gene expression was determined using the ΔΔCt method of normalized quantitation 60, where Ct indicates the cycle number at which exponential growth phase increases above threshold fluorescence signal.

For `C[C@]1(Cn2ccnn2)[C@H](C(=O)O)N2C(=O)C[C@H]2S1(=O)=O` [Tazobactam], the minimum inhibitory concentration (MIC) in the experiment with MRSA N315 [1] (Staphylococcus aureus, MRSA) amounted to 100 µg/mL; in the experiment with MRSA N315 [1] (Wild-type N315), 100 µg/mL; in the experiment on MRSA N315 [1] (colonies from mice given PI) it was 100 µg/mL; with MRSA N315 [1] (colonies from mice given Vehicle) it was 100 µg/mL; in the experiment on MRSA N315 [3], 128 µg/mL. For the same compound, the “Result (Alive/Dead)” value in the experiment on MRSA N315 [2] (67 mg/kg (of each) every 8 hrs SC, 6 doses, one line per mouse) is listed as “Dead”. Also, in the experiment with MRSA N315 [2] (67 mg/kg (of each) every 8 hrs SC, 6 doses, six days post-infection), the “Result (survivors per group)” value is 0/6. Moreover, in the experiment on MRSA N315 [2] (most within 48 h, 67 mg/kg (of each)), the “mice that succumbed to the infection” value was “all mice”. In addition, the “collateral effect on susceptibility” value in the experiment with MRSA N315 [4] is “no collateral sensitivity”. For the same compound, the “induction of mecA expression” value with mecA was “strong inducer of mecA”.
